In US20240069044A1, “METHOD FOR DIAGNOSING A PREDISPOSITION OF A LIVING BEING TO DEVELOP THROMBOCYTOPENIA” (priority 2021, published 2024):

Tests used:
[1] = system: washed platelets from healthy donors; assay: Procoagulant platelets induced by HIT patient sera, washed platelets, flow cytometry; assay type: cell-based; settings: for generation of procoagulant platelets by patient sera in the presence of the additive: HIT, washed platelets (FIG. 8) or PRP (FIG. 9), 0.2 IU/mL LMWH, high concentration UFH, PF4, IV.3, result in words
Experimental: Prior to usage, all sera were heat-inactivated at 56° C. for 30 min, followed by a sharp centrifugation step at 5,000 g. The supernatant was collected in a fresh tube. For determination of procoagulant platelets, 5 μL serum was incubated with 25 μL washed platelets ([…]) for 1 h under rotating conditions at RT. Where indicated, cell suspensions were preincubated with PF4 (10 μg/ml) and Heparin (0.2 or 100 IU/ml). Afterwards, samples were washed once (7 min, 650 g, RT, without brake) and gently resuspended in 75 μL of phosphate-buffered saline (PBS, Biochrom, Berlin, Germany). Platelets were then stained with Annexin V-FITC and CD62-APC (Immunotools, Friesoythe Germany) and directly analyzed by flow cytometry (FC). Test results were determined as fold increase of the percentage of double PS/CD62p positive events in platelets upon incubation with patients' sera compared to the baseline.
37.5 μl wPLTs/PRP were supplemented with 1 μl of 10 IUs heparin (final concentration 0.2 IUs) or 1 μl of 5000 IUs heparin (final concentration 100 IUs) and 5 μL serum/IgG from HIT patients or control serum/IgG. Samples were filled up with PBS to a final volume of 50 μl and incubated for 1 hour under rotating conditions at RT. Afterwards, 5 μl of the PLT suspension were transferred into a final volume of 100 μL of Hank's balanced salt solution (HBSS) containing 137 mM NaCl, 1.25 mM CaCl2), 5.5 mM glucose, [Carl-Roth, Karlsruhe, Germany]) and incubated with 1 μL anti-CD62p-APC (BD, San Jose, USA), 1 μL Annexin-FITC (Immunotools, Friesoythe, Germany) and 2 μL anti-CD42a-PerCP (BD, San Jose, USA) for 30 min at RT in the dark. PLTs that were treated with thrombin receptor activating peptide (TRAP-6, [10 μM, 30 min at RT]) and ionomycin [5 μM, 15 min at RT] (both Sigma-Aldrich, St. Louis, USA) served as positive controls. Afterwards, PLTs were resuspended with HBSS to a final volume of 500 μL and immediately assessed via flow cytometry ([FC]), Navios, Beckman-Coulter, Brea, USA).
To investigate the mechanisms of HIT antibody-induced changes on PLTs, […] wPLTs/PRP were pretreated with Fc-gamma-RIIA blocking monoclonal antibody (moAb) anti-CD32 (moAb IV.3; Stemcell™ technologies, Vancouver, Canada) or a monoclonal isotype control ([SC-2025] Santa Cruz Biotechnology, Dallas, USA) for 30 min at RT prior to HIT serum/IgG treatment.

[2] = system: washed platelets from healthy donors; assay: Antibody-mediated procoagulant platelets (CD62p/PS positive) by flow cytometry, VITT sera; assay type: cell-based; settings: for FI CD62p/PS positive PLTs: VITT sera with washed platelets, 0.2 IU/mL LMWH, high concentration UFH, mAb IV.3, high concentrations of IgG, PF4 or Spike-RBD, sera alone 22.94±6.14
[3] = system: PRP from healthy individuals; assay: Procoagulant platelets in platelet rich plasma (PRP) with patient sera/HIT IgG, flow cytometry; assay type: cell-based; settings: for procoagulant PLT formation by HIT IgG fractions: PRP
Experimental: IgG fractions were isolated from HIT as well as from control sera by the use of a commercially available IgG-purification-kit (Melon™-Gel IgG Spin Purification Kit, Thermo Fisher Scientific, Waltham, USA) as recommended by the manufacturers. In brief, heat inactivated serum was diluted 1:10 in purification buffer and incubated with the kit specific Gel IgG Purification Support over four cycles for 10 min. Subsequently, periodically performed centrifugation steps through a 10 μm pore size filter tube were performed for 1 min at 5000×g. The flow throw was collected into 100 kDa pore sized centrifugal filters (Amicon Ultra-4, Merck Millipore, Cork, Ireland) with subsequent concentration to the initial volume of the used serum sample via centrifugation (10-15 min, 2000×g, 4° C., with brake). IgG concentrations were measured by excitation using a NanoDrop One at a wavelength of […] (VWR, Bruchsal, Germany).
For determination of procoagulant platelets in PRP, sera were prepared as described above. For PRP preparation, venous blood from healthy individuals was withdrawn into vacutainers containing sodium citrate 0.105 M (3.2%) (BD, Plymouth, UK) and allowed to rest for 20 min at RT. PRP was prepared by centrifugation (20 min, 120 g, RT) and adjusted with autologous platelet poor plasma (PPP, [10 min, 2000 g, RT]) to a PLT count of 300×10^6/ml. […] Afterwards, samples were processed as described for washed PLTs and analysed by flow cytometry (FC). Test results were determined as fold increase of the percentage of double PS/CD62p positive events in platelets upon incubation with patients' sera compared to the baseline.
37.5 μl wPLTs/PRP were supplemented with 1 μl of 10 IUs heparin (final concentration 0.2 IUs) or 1 μl of 5000 IUs heparin (final concentration 100 IUs) and 5 μL serum/IgG from HIT patients or control serum/IgG. […] Afterwards, PLTs were resuspended with HBSS to a final volume of 500 μL and immediately assessed via flow cytometry ([FC]), Navios, Beckman-Coulter, Brea, USA).

[4] = system: washed platelets from healthy donors; assay: Heparin induced platelet activation assay (HIPA) with modifications, VITT sera; assay type: cell-based; settings: for platelet activation by VITT sera in the presence of the additive: result in words
Experimental: (§1) A commercially available IgG-Enzyme Immune Assay (EIA) was used in accordance to manufacturer's instructions (Hyphen Biomed, Neuville-sur-Oise, France). Per manufacturer's recommendations, a sample was considered reactive if the optical density (OD) was ≥0.500. The ability of sera to activate platelets was tested using the functional assay heparin induced platelet aggregation assay (HIPA) as previously described. In brief, serum was tested with washed platelets (wPLTs) from four different healthy donors in the absence (buffer alone) or in the presence of unfractionated heparin (0.2 IU/mL and 100 IU/mL, [Ratiopharm, Ulm, Germany]). Reactions were placed in microtiter wells containing spherical stir bars and stirred at approximately 500 revolutions per minute (rpm). Wells were examined optically at five-minutes (min) interval for loss of turbidity. A serum was considered reactive (positive) if a shift from turbidity to transparency occurred within 30 min in at least two platelet suspensions. Observation time was 45 min. Each test included a diluted serum from a patient with HIT as a weak positive control, collagen (5 μg/mL) as strong positive control and a serum from a healthy donor as a negative control.
To investigate the ability of patients sera to activate platelets, the HIPA assay was used with several modifications. Sera were incubated with washed platelets in the presence of I) buffer, II) 0.2 IU/mL LMWH, III) 100 IU/mL UFH, IV) an Fc gamma receptor IIa (FcγRIIA)-blocking monoclonal antibody (mAb IV.3), VI) 30 mg/mL IVIG, VII) 25 μg/mL PF4, VIII) 50 μg/mL Spike-RBD, IX) PF4/Spike-RBD complexes, X) PF4+RBD or XI) ChAdOx1 nCoV-19 (XII). Conditions with PF4 and RBD were also repeated in the presence of high concentration of heparin (100 IU/mL UFH). […] (FIG. 5B). […] Antibody-mediated platelet activation was inhibited when low molecular weight heparin (LMWH) was added at low concentrations by testing three sera.

[5] = system: platelets from healthy donors; assay: IgG binding to platelets by flow cytometry after incubation with VITT sera; assay type: cell-based
PF4/heparin complexes = target: T1, PF4/heparin complexes (Homo sapiens, UniProt P02776); assay: IgG PF4/heparin EIA with sera from VITT patients; assay type: binding; settings: VITT sera (8/8), in the presence of high concentration of heparin; without: 2.591±0.642; p<0.0001
T1 construct: purchased Hyphen Biomed, Neuville-sur-Oise, France
T1 sequence (P02776 32-101): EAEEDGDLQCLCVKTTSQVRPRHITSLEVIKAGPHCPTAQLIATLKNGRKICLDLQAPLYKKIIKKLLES
Experimental: as §1

| Substance | generation of procoagulant platelets by patient sera in the presence of the additive [1] | FI CD62p/PS positive PLTs [2] [fold increase] | procoagulant phenotype induced by diluted VITT sera ([2]; diluted sera (from 1:64), result in words) | procoagulant phenotype, sera from HIPA negative patients with PRP ([3]; in presence of PF4, when treated with 0.2 IU/ml Heparin (LMWH)) | Median time to aggregate ([4]; VITT sera with washed platelets, 0.2 IU/mL LMWH, 25 μg/mL PF4, mAb IV.3 or 30 mg/mL IVIG, buffer alone 5 min, observation time 45 min) [min] | platelet activation by VITT sera in the presence of the additive [4] | change in IgG binding to platelets in the presence of the additive ([5]; result in words) | CD62p/PS positive PLTs, mean %±SEM ([1]; HIT sera with wPLTs, supratherapeutic (Hep. 100 IUs) doses of heparin) [%] | CD62p/PS positive PLTs, mean percent [mean %]±SEM ([1]; HIT sera with wPLTs, therapeutic (0.2 IUs) heparin, HC sera 1±0) [%] | mean optical density [OD] of IgG antibodies against PF4/heparin complexes (PF4/heparin complexes) [OD] | procoagulant PLT formation by HIT IgG fractions ([3]; supratherapeutic (100 IUs) doses of heparin) | procoagulant PLT formation by HIT IgG fractions ([3]; therapeutic doses (0.2 IUs) heparin) | FI of MFI IgG binding to platelets ([5]; heparin at high concentrations (100 IU/ml), without heparin 4.39±1.15, p 0.016) [fold increase] | FI of MFI of IgG binding to platelets ([5]; heparin at low concentrations (0.2 U/mL), without heparin 4.39±1.15, p 0.688) [fold increase] |
| --- | --- | --- | --- | --- | --- | --- | --- | --- | --- | --- | --- | --- | --- | --- |
| PF4: small cytokine of the CXC chemokine family released from alpha-granules of activated platelets | increase of procoagulant platelets | 37.07±23.73 | only in the presence e of PF4 | Strong increase | 5 | only in the presence e of PF4 | Only one serum showed increased binding | – | – | – | – | – | – | – |
| heparin | completely inhibited | 1.92±0.96 | – | – | – | All reactions were inhibited | – | 1.18±0.28 | 44.99±6.26 | 0.176±0.073 | not observed | showed the capability to induce procoagulant PLTs | 1.51±0.66 | 3.60±2.01 |
